Test results published in US20110251220A1, “Pharmaceutical compositions comprising gamma secretase modulators” (priority 2008, published 2011).

Experiments:
Type in all cases: cell-based, human
OBL = experiment: PARP cleavage in osteoblasts (OBL), mono- and coculture; conditions: mono- and cocultures, high doses of GSI15
Protocol: (§1) Human MM cell lines used were as follows: NCI-H929, OPM-2, LP-1, RPMI-8226, U266 (DSMZ, Braunschweig, Germany). Cell lines were cultured in RPMI 1640 medium (Biochrom, Berlin, Germany) supplemented with 10% heat-inactivated fetal calf serum (FCS, Gibco, Karlsruhe, Germany), 1 mM sodium pyruvate and 100 units/ml penicillin and 100 μg/ml streptomycin (Gibco). Human osteoclasts were obtained as described in the reference of Zavrski I, Krebbel H, Wildemann B, et al. Proteasome inhibitors abrogate osteoclast differentiation and osteoclast function. Biochem Biophys Res Commun. 2005; 333:200-205. Briefly, peripheral blood mononuclear cells (PBMC) were isolated from whole blood of healthy volunteers, using a Ficoll-Hypaque density gradient. The adherent fraction of the isolated mononuclear cells was cultured for 21 days in MEM medium (Sigma-Aldrich Chemie, Taufkirchen, Germany) supplemented with 10% FCS, 100 U/ml penicillin, 100 μg/ml streptomycin, 50 ng/ml M-CSF, and 25 ng/ml RANKL (osteoclastogenic medium), before coculture experiments and treatment with the inventive compounds started. […]
Whole cell extracts were prepared and quantified as described in Jundt F, Anagnostopoulos I, Forster R, Mathas S, Stein H, Dorken B. Activated Notch1 signaling promotes tumor cell proliferation and survival in Hodgkin and anaplastic large cell lymphoma. […]

OPM-2 cells = experiment: PARP cleavage by Western blotting, OPM-2
Protocol: In osteoclast coculture experiments, OPM-2 cells (1×10^6 cells) were added to osteoclasts in 60 mm dishes (4×10^6 cells per dish) in 3 ml MEM medium supplemented with 10% FCS, 100 U/ml penicillin, 100 μg/ml streptomycin. GSI15 (30 μM, 60 μM) or DMSO (equivalent to 60 μM) as solvent control were added to each well (daily treatment). After 48 h, 0.5 ml OPM-2 cell suspension were harvested per well and subjected to AnnexinV-FITC/PI staining. Remaining OPM-2 cells were harvested and lysed for either RNA or protein preparation. The monolayer of osteoclasts was washed twice with ice-cold PBS and then lysed for either RNA or protein preparation directly on the plate.
In osteoblast coculture experiments, OPM-2 cells (7.5×10^5) were added to osteoblasts (2×10^5 cells) in 6-well plates in 2 ml DMEM/HAM's F12 medium supplemented with 10% FCS, 100 U/ml penicillin, 100 μg/ml streptomycin. GSI15 (40 μM, 60 μM, 80 μM) or DMSO (equivalent to 80 μM) as solvent control was added to each well (daily treatment). After 72 h of coculture and GSI15 treatment OPM-2 cells in suspension were aspirated and subjected to protein lysis. The remaining monolayer of osteoblasts was washed twice with ice-cold PBS and lysed directly on the plate with protein lysis buffer.
Whole cell extracts were prepared and quantified as described in Jundt F, Anagnostopoulos I, Forster R, Mathas S, Stein H, Dorken B. Activated Notch1 signaling promotes tumor cell proliferation and survival in Hodgkin and anaplastic large cell lymphoma. Blood. 2002; 99:3398-3403. Proteins (30 μg) were resolved by sodium dodecyl sulfate-polyacrylamide gel electrophoresis (SDS-PAGE) and transferred to nitrocellulose membranes. Protein loading was normalized by Ponceau red staining. […]
Secondary antibodies were goat anti-mouse (Promega, Mannheim, Germany), goat anti-rat (Dianova, Hamburg, Germany), and goat anti-rabbit (Santa Cruz Biotechnology) horseradish peroxidase (HRP)-conjugated antibodies. Detection was done using Pico chemi-luminescence reagent (Perbio Science, Bonn, Germany).

[1] = system: OPM-2 cocultured with OCL; experiment: OPM-2/OCL coculture, apoptosis of OPM-2 by AnnexinV-FITC/PI staining; conditions: 60 μM GSI15, 48 h
Protocol: as §1, with “gradient.” for “gradient. The adherent fraction of the isolated mononuclear cells was cultured for 21 days in MEM medium (Sigma-Aldrich Chemie, Taufkirchen, Germany) supplemented with 10% FCS, 100 U/ml penicillin, 100 μg/ml streptomycin, 50 ng/ml M-CSF, and 25 ng/ml RANKL (osteoclastogenic medium), before coculture experiments and treatment with the inventive compounds started.”
For cell cycle analysis 2×10^5 cells were spun down, medium was aspirated and cells washed with PBS. […] After 10 minutes incubation in the dark at room temperature, cells were analyzed by flow cytometry. The amount of apoptotic cells was determined by AnnexinV/propidium iodide staining using Human AnnexinV-FITC Kit (Bender Medsystems, Vienna, Austria), according to manufacturer's protocol. […] Cells were then spun down again, resuspended in binding buffer containing PI and analyzed by flow cytometry.

SMILES: CC(C)c1ccc(S(=O)(=O)Nc2cccnc2Oc2ccc(Cl)cc2)cc1 [Example 1, N-(2-(4-chlorophenoxy)pyridin-3-yl)-4-isopropylbenzenesulfonamide]
- PARP cleavage (apoptosis) (OBL): Neither in OBL nor in MSC apoptosis was induced
- PARP cleavage (OPM-2 cells; MM cells in coculture with OBL or MSC): apoptosis induction
- PARP cleavage product (apoptosis marker) (OPM-2 cells; OPM-2, 30 μM GSI15): Apoptosis induction could be shown
- PARP cleavage (OPM-2 cells; OPM-2 in mono- and coculture with OCL): Strong induction of PARP cleavage
- overall amount of apoptotic cells [1]: 83%
